Consider one compound from patent publication US8859215B2, “Cell binding assay” (GE Healthcare Bio-Sciences AB, priority 2011, dated 2014).

Structures are written as SMILES. “Also recorded” adds a separate entry of the source.

This test has as its system Multicellular Tumor Spheroids (MTS). Put plainly: Fluorescent cell binding assay: Cy3 Annexin V binding to drug treated cells, Western blotting, normalized to actin (apoptosis assay). The class given is cell-based. As to the method: Doxorubicin is an anti-cancer drugs aimed to inhibit uncontrolled cell proliferation by inducing apoptosis in cells. Multicellular Tumor Spheroids were treated with Doxorubicin and incubated with Cy 3 Annexin V. The cells are lysed and the proteins are separated and transferred to a membrane. Cy 3 Annexin V can be detected simultaneously with actin targeted by ECL Plex Cy5Western Blotting. The amount of Annexin V binding to the cells upon treatment can easily be quantified after normalization to the house-keeping protein actin.
Cancer cells, Multicellular Tumor Spheroids (MTS) (Sanitini et al. Critical Rev Oncol Hematol 2001, 36:75-87) were treated for 3 days with […] different concentrations (1 μM, 5 μM and 10 μM) of the cancer drug Doxorubicin. To determine the level of drug induced apoptosis the cells were incubated with Cy3 conjugated Annexin V. Non-bound Cy 3 Annexin V was washed away with PBS followed by cell lysis using mammalian cell protein extraction buffer (GE Healthcare). […]
The signals from bound Cy 3 Annexin V and Cy 5 actin are detected simultaneously by scanning the membrane in Cy3 and Cy5 channels using a Typhoon Imager (GE Healthcare, FIG. 2a). The image was analysed with Image Quant TL software (GE Healthcare). […] In this way any uneven sample loading is corrected for and very accurate quantification of the cells capacity to bind Annexin V is determined. […]
(Immunoblotting shows a protein as a band on a membrane.)

As to `COc1cccc2c1C(=O)c1c(O)c3c(c(O)c1C2=O)C[C@@](O)(C(=O)CO)C[C@@H]3O[C@H]1C[C@H](N)[C@H](O)[C@H](C)O1` [Doxorubicin], where the note is “cancer cells (MTS) treated for 3 days with 1 μM, 5 μM and 10 μM, compared against control (no treatment)”, the “Annexin V binding to cells (signal ratio Cy3 Annexin V : Cy5 actin), indicating apoptosis” value is reported as “dose dependent binding of Annexin V to treated cells; also recorded: dose dependent Annexin V binding to cells up to 5 μM”. In addition, the “Annexin V binding to cells (signal ratio Cy3 Annexin V : Cy5 actin)” value (treatment with 10 μM for 3 days, MTS cells) was “decrease of the Annexin V binding”.
